This is an account of results in article PMC1197287 (PLoS Biology, 2005).

The target in data set [1] is MHV M^pro (Murine coronavirus, UniProt P0C6X9). Nature of the data set: biochemical. Conditions: pH 7.3, read-out: kobs/[I].
The target in data set [2] is IBV M^pro (Avian infectious bronchitis virus, UniProt P0C6Y3). Nature of the data set: biochemical.
In data set [3] the target is FIPV M^pro (Feline coronavirus, UniProt Q98VG9). Nature of the data set: biochemical. Conditions: pH 7.3, read-out: kobs/[I].
FIPV M^pro, sequence (Q98VG9 2904-3205): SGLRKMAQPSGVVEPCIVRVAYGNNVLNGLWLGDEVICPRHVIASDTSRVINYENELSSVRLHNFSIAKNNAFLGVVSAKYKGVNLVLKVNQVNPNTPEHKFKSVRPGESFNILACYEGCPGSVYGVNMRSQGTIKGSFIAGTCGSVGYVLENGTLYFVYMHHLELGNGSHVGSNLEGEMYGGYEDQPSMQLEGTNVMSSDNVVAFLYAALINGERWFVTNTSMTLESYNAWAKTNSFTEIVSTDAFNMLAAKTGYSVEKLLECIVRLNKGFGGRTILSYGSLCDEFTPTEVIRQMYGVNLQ
Data set [4] concerns the target T1, HCoV-229E M^pro (Human coronavirus 229E, UniProt P0C6X1).
T1 construct: HCoV-229E M^pro (15 mg/ml; two amino acids deleted at C-terminal); made in house
The data set is described as follows: biochemical.

Data set [5] relates to CoV M^pros. The class given is biochemical.
Data set [6] concerns the target TGEV M^pro (Porcine transmissible gastroenteritis coronavirus, UniProt P0C6Y5). The data set is described as follows: biochemical.
Details of data set [7]: method as in PMID 14638501, PMID 11796347. Conditions: in animals; cited from earlier work.
The test system of data set [8] is CoVs. The note with it: cited from earlier work.
Details of data set [9]: method as in PMID 14638501, PMID 11796347. The note with it: cited from earlier work.
The test system of data set [10] is rhinovirus. Also noted: method as in PMID 14638501, PMID 11796347. The note with it: intranasal suspension; cited from earlier work.
On the set-up of data set [11]: method as in PMID 14638501, PMID 11796347. Conditions: cited from earlier work. The source holds these as a separate data set.
The test system of data set [12] is FIPV. Nature of the data set: microbe, parasite or virus in culture. It counts as cell-based, FIPV (strain 79–1146). Conditions: Alphacoronavirus 1, 14 h.
Data set [13] has as its system SARS-CoV. The note with it: cell-based assays; data to be published elsewhere.
The target of data set [14] is M^pro of HCoV-HKU1 (Human coronavirus HKU1, UniProt P0C6X2). The class given is biochemical.
M^pro of HCoV-HKU1, sequence (P0C6X2 3335-3637): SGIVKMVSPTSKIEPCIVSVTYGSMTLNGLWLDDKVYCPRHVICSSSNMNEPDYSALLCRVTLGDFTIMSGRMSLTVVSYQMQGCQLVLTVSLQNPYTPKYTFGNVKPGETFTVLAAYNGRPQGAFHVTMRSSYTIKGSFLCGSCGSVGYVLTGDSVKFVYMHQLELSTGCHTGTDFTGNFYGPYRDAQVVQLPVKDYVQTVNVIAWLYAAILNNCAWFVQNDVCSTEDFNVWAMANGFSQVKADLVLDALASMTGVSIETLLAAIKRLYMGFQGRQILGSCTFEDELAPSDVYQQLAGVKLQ
Data set [15] has as its target SARS-CoV M^pro (Severe acute respiratory syndrome coronavirus, UniProt P0C6X7). Nature of the data set: biochemical.
Data set [16] concerns MHV-A59. The data set is described as follows: MHV-A59 plaque-reduction assay in DBT cells. It counts as cell-based. The protocol:
Murine DBT cells (generously provided by Dr. Lishan Su of University of North Carolina) were cultured in Dulbecco's modified Eagle's medium supplemented with 10% fetal bovine serum (FBS) and antibiotics at 37 °C in 5% CO2.
DBT cells were suspended in growth medium in triplicate wells in 6-well plates and preincubated with appropriate concentrations of the inhibitor. The next day, the medium was aspirated, and MHV-A59 was added to each well at a titer of 100 PFU/well. After incubation for 1 h, the virus inoculum was aspirated, and 2 ml of a media-agar overlay with appropriate concentrations of inhibitor was added to each well. The plates were further incubated for 24 h and stained with neutral red to visualize plaques.
A general note: Plaque reduction counts the foci of infection that form in a cell layer.

The test system of data set [17] is MHV-A59. Nature of the data set: organism not typed. The class given is cell-based. Conditions: 14 h.
Data set [18] deals with DBT cells. The data set is described as follows: Cytotoxicity assay (MTT). The class given is cell-based, murine. The note with it: 500 μM, two days. The protocol:
DBT cells were suspended in growth medium in 96-well plates. The next day, appropriate concentrations of the inhibitor were added to the medium. Two days later, the relative numbers of surviving cells were measured by MTT (Sigma, St. Louis, Missouri, United States) assay in accordance with the manufacturer's instructions.

Data set [19] deals with TGEV. The data set is described as follows: Cell-based assay of TGEV replication. The note with it: cell-based assays; data to be published elsewhere.
The target of data set [20] is M^pro of HCoV-NL63 (Human coronavirus NL63, UniProt P0C6X5). It counts as biochemical.
M^pro of HCoV-NL63, sequence (P0C6X5 2940-3242): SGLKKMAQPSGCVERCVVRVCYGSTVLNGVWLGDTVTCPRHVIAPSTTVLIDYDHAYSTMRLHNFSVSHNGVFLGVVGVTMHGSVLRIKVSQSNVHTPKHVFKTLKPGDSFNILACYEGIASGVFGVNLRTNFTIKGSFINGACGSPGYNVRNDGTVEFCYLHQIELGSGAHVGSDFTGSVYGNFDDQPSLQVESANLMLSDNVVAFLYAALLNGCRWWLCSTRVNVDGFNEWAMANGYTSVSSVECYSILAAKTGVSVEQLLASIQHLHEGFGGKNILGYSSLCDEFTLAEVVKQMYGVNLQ
The subject of data set [21] is HCoV-229E. Nature of the data set: microbe, parasite or virus in culture. It counts as cell-based. The note with it: Human coronavirus 229E, MRC5, 14 h.

TGEV M^pro, sequence (P0C6Y5 2879-3180): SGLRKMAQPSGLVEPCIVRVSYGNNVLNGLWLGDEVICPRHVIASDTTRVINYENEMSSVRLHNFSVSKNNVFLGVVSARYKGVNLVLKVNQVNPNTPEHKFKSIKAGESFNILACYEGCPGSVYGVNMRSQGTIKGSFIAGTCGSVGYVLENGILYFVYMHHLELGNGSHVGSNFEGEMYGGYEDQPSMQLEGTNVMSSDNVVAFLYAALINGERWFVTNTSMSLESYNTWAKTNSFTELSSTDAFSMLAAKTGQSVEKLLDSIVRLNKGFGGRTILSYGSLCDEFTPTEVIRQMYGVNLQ
IBV M^pro, sequence (P0C6Y3 2782-3088): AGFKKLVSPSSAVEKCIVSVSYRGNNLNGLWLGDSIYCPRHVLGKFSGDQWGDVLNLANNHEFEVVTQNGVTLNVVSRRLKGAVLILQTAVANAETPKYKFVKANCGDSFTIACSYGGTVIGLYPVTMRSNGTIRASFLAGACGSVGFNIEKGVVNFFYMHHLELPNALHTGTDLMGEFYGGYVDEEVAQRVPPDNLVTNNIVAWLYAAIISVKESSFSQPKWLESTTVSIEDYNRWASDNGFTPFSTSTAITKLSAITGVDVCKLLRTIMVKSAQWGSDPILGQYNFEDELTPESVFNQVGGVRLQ
T1 sequence (P0C6X1 2966-3265 limits assumed): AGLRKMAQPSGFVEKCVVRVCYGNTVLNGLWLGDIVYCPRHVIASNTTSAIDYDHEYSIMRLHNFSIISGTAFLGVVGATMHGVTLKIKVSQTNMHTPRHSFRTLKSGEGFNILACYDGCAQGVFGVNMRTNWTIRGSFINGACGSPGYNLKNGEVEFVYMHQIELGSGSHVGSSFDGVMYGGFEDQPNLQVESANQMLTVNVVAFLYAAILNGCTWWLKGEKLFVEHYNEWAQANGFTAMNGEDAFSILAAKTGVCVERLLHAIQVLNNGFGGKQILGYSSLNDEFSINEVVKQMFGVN
MHV M^pro, sequence (P0C6X9 3334-3635): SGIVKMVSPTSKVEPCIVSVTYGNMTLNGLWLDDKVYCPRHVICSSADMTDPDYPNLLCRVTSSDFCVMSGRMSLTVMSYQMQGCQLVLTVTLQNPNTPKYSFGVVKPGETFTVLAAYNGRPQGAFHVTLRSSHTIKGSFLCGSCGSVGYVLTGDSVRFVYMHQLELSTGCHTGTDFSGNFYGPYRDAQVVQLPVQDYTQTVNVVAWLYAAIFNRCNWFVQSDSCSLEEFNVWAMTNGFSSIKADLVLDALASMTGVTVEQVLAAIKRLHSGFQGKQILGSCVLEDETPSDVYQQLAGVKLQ

Broadly, the Ki is a measure of affinity in units of concentration, obtained from inhibition or displacement. Regarding `CCOC(=O)/C=C/[C@H](C[C@@H]1CCNC1=O)NC(=O)[C@H](CC(C)C)NC(=O)[C@@H](NC(=O)[C@H](C)NC(=O)c1cc(C)on1)C(C)C` [N1], the values for the kinact/KI in data set [1] and in data set [3] were 2800 M⁻¹ s⁻¹ and 24000 M⁻¹ s⁻¹, respectively. In addition, the Ki in data set [2] was 3.9 ± 0.9 µM; in data set [4], 1.11 ± 0.09 µM; in [5] (read-out: Ki, range over CoV M^pros), 1.11 to 10.7 µM; in data set [6], 3.2 ± 0.2 µM. In addition, the k3 is 14.5 ± 1.2 × 10^−3s^−1 in [2] (IBV M^pro, inactivation rate constant); 14.8 ± 0.7 × 10^−3s^−1 in [4]; 50 ± 3 × 10^−3s^−1 in data set [6]. Moreover, in data set [5], the “in vitro inactivation of all CoV M^pros tested” value is listed as “fast in vitro inactivation”. Further, in data set [5], the “k3, range over CoV M^pros” value is recorded as 4.1–50 × 10^−3s^−1.

Regarding `CCOC(=O)/C=C/[C@H](C[C@@H]1CCNC1=O)NC(=O)[C@@H](CC(=O)[C@@H](NC(=O)c1cc(C)on1)C(C)C)Cc1ccc(F)cc1` [Ruprintrivir, ruprintrivir], the oral bioavailability result in [7] is on record as “low”. Besides, the “inhibition of CoVs” value in data set [8] was “did not show inhibition”. In data set [9], the aqueous solubility result is given as “poor”. Also, the “effect of prophylaxis in Phase II studies” value in [10] was “reduced the proportion of subjects with positive viral cultures and viral titers”. Moreover, in data set [11], the “most common adverse effects” value is “blood-tinged mucus and nasal passage irritation”; the tolerability result is listed as “well tolerated”.

By IC50 is commonly meant the concentration at which inhibition is half-maximal. Read a low IC50 as higher potency. For orientation: EC50 means the concentration that produces a half-maximal response. `Cc1cc(C(=O)N[C@@H](C)C(=O)N[C@H](C(=O)N[C@@H](CC(C)C)C(=O)N[C@H](/C=C/C(=O)OCc2ccccc2)C[C@@H]2CCNC2=O)C(C)C)no1` [N3]: the IC50 in [12] was 8.8 µM; in [17], 2.7 µM; in [21], 4 µM. The “inhibition of replication of SARS-CoV” value in [13] is “strongly inhibit”. In addition, in data set [14], the “inhibition on M^pro of HCoV-HKU1” value is “potent inhibition”. Besides, the Ki amounted to 9 ± 0.8 µM in [15] and 1.67 ± 0.18 µM in data set [4]. Moreover, the k3 was 3.1 ± 0.5 × 10^−3s^−1 in data set [15] and 18.0 ± 1.1 × 10^−3s^−1 in [4]. Also, the kinact/KI in [1] was 4800 M⁻¹ s⁻¹; in data set [2] (pH 7.3, read-out: kobs/[I]), 7900 M⁻¹ s⁻¹; in [3], 47000 M⁻¹ s⁻¹; in data set [6] (pH 7.3, read-out: kobs/[I]), 13000 M⁻¹ s⁻¹. In data set [16] (8 μM N3), the “protection of DBT cells from MHV infection” value is “sufficiently protected”. In [16] (DBT cells, low-multiplicity (MOI = 0.01)), the EC50 amounted to 3.4 µM. Also, in data set [18], the “inhibition of cell growth” value is given as 28.3%. The “inhibition of replication of TGEV” value in [19] was “strongly inhibit”. The “in vitro inactivation of all CoV M^pros tested” value in data set [5] was “fast in vitro inactivation”. In addition, in data set [20], the “inhibition on M^pro of HCoV-NL63” value is listed as “potent inhibition”.
